Measurements reported in article PMC10713593, “Staphylococcus aureus functional amyloids catalyze degradation of β-lactam antibiotics” (Nature Communications, 2023).
Where no end group is shown, it is not given here.

Assays:
[1] = Nitrocefin hydrolysis kinetics (absorbance of degraded nitrocefin at 480 nm; initial rates V0, Michaelis-Menten fit); format: biochemical; set-up: Initial nitrocefin-degradation reaction rate, V0: unit not given here; settings: for Initial nitrocefin-degradation reaction rate, V0 / nitrocefin degradation yield (turnover): nitrocefin 60 µM; for Initial nitrocefin-degradation reaction rate, V0: Hepes pH 7.4, average of the six runs; for nitrocefin degradation yield (turnover): PSMα assemblies 350 µM, A480, monitored 2 h (Fig. 2a)
Description: Nitrocefin, a β-lactam widely used as a surrogate substrate of Penicillin in β-lactamase activity assay, was used as a substrate. NC degradation was monitored for 2 h. Nitrocefin stock solution was dissolved in acetonitrile (20 mM) and then diluted with Hepes buffer (50 mM, pH 7.4) to nitrocefin concentration of 360 µM (further dilutions to lower concentrations were made with the 360 µM NC stock). All nitrocefin samples were kept on ice in cold conditions and any further dilution or mixing was performed in ice-cold conditions to avoid self-hydrolysis background reaction. […] Immediately after mixing the samples, the plate was transferred to 20̊ °C pre-cooled plate reader (Multiskan GO, Thermo Scientific, Waltham, MA) and shaken slowly for 10 s. Then, the absorbance of degraded nitrocefin was measured for 2 h at interval of 20 s at λ = 480 nm. Initial production rates (V0) were calculated by slope of the initial linear range of degraded-nitrocefin production at the first 15 min. The reported results are and average of at least five separate measurements (the exact number of repeats, N, is reported next to the values). Each experiment also included blank samples of nitrocefin substrate diluted with buffer instead of PSMα. […] The initial rate calculations were performed while also subtracting the self-degradation of the substrate, to ensure that this product absorbance is a result of PSMα presence.
The initial rates of degraded-nitrocefin production were calculated from the slopes of the first 15 min of measurement as reported above. The initial rates (V0) were fitted using non-linear regression applied with the solver function in excel, either to Michalis–Menten equation V=Vmax.[S]/(KM+S) Where Vmax. Stands for maximal reaction rate, KM stands for Michalis–Menten constant, [S] stands for the substrate molar concentration. Each initial rate value was presented as average ± SEM. The kinetic parameters were calculated by fitting the data to MM model using non-linear regression, and the confidence intervals for each parameter were calculated accordingly.

PSMα3 fibrils = PSMα3 fibrils (Staphylococcus aureus, UniProt A9JX07); assay: LC-MS degradation of amoxicillin and penicillin G with PSMα3 fibrils or buffer; format: biochemical; settings: for Degraded Penicillin G (PSMa3) (percentage of LC peaks, hydrolyzed product) / Penicillin G (PSMa3) (percentage of LC peaks, parent compound) / Degraded Penicillin G (percentage of LC peaks, hydrolyzed product) / Penicillin G (percentage of LC peaks, parent compound): Hepes 50 mM pH 7.4, penicillin G 40 µM, LC-MS; for Degraded Penicillin G (percentage of LC peaks, hydrolyzed product) / Penicillin G (percentage of LC peaks, parent compound): buffer control
Description: Amoxicillin or Penicillin solutions were dissolved in Hepes buffer (50 mM, pH 7.4) in concentration of 50 µM. PSMα3 solution in concentration of 1.54 mM was dissolved in DIW and Hepes buffer was added to the final concentration of 50 mM. The antibiotics’ solutions and preincubated PSMα3 solutions were mixed to final PSMα3 […] 180 µL organic solvent to stop the reaction (acetonitrile for Amoxicillin, methanol in the case of Penicillin). The samples were collected and injected sequentially into the LC-MS analysis.
Waters ACQUITY UPLC I-Class PLUS System coupled with high-resolution Thermo Orbitrap Exploris 240 mass-spectrometer were used for analysis of Amoxicillin and Penicillin-G over time. 1 µL of each sample was injected into the reverse-phase Acquity UPLC BEH C18 1.7 µm, 2.1 × 50 mm column (Waters) and run under a gradient program (Table S2 for Amoxicillin, Table S3 for Penicillin-G). The samples were ionized using soft electrospray ionization in positive mode and detected in a full scan mode in range from 60 to 900 m/z with a resolution of 240,000 Full Width at Half Maximum. MS was tuned according to the manufacture recommendations. Relative abundance of the intact/degraded compounds was calculated by peak area of the extracted ion chromatogram: for Amoxicillin 366.1–366.12, and degraded-Amoxicillin 384.1–384.13 m/z, Penicillin-G 335.1–335.12, for degraded-Penicillin-G 353.1–353.12, for (Figs. S13 and S14, respectively).

PSMα3 fibrils, sequence (A9JX07 whole entry, looked up): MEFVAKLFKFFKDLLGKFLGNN

CC[C@H](C)[C@H](NC(=O)CNC(=O)[C@@H](N)CCSC)C(=O)N[C@H](C(=O)N[C@@H](C)C(=O)NCC(=O)N[C@H](C(=O)N[C@H](C(=O)N[C@@H](CCCCN)C(=O)N[C@@H](Cc1ccccc1)C(=O)N[C@H](C(=O)N[C@@H](CCCCN)C(=O)NCC(=O)N[C@@H](CC(C)C)C(=O)N[C@H](C(=O)N[C@@H](CCC(=O)O)C(=O)N[C@@H](CCCCN)C(=O)N[C@@H](Cc1ccccc1)C(=O)N[C@H](C(=O)NCC(=O)N[C@@H](CCCCN)C(=O)O)[C@@H](C)O)[C@@H](C)CC)[C@@H](C)CC)[C@@H](C)CC)[C@@H](C)CC)[C@@H](C)CC [PSMα2]
ATR-FTIR amide-I peak/maximum: 1650 cm⁻¹
Initial nitrocefin-degradation reaction rate, V0 ([1]; PSMα 4.01424 uM): 1.158
Initial nitrocefin-degradation reaction rate, V0 ([1]; PSMα 6.02136 uM): -0.4109
Initial nitrocefin-degradation reaction rate, V0 ([1]; PSMα 9.03205 uM): 0.9321
Initial nitrocefin-degradation reaction rate, V0 ([1]; PSMα 13.5481 uM): 0.6055
Initial nitrocefin-degradation reaction rate, V0 ([1]; PSMα 20.3221 uM): 1.35
Initial nitrocefin-degradation reaction rate, V0 ([1]; PSMα 30.4832 uM): 1.3793
Initial nitrocefin-degradation reaction rate, V0 ([1]; PSMα 45.7247 uM): 2.588
Initial nitrocefin-degradation reaction rate, V0 ([1]; PSMα 68.5871 uM): 11.4228
Initial nitrocefin-degradation reaction rate, V0 ([1]; PSMα 102.881 uM): 36.0382
Initial nitrocefin-degradation reaction rate, V0 ([1]; PSMα 154.321 uM): 59.4111
Initial nitrocefin-degradation reaction rate, V0 ([1]; PSMα 231.481 uM): 94.344
Initial nitrocefin-degradation reaction rate, V0 ([1]; PSMα 347.222 uM): 117.315
nitrocefin degradation yield (turnover) ([1]; Hepes 50 mM pH 7.4, 20 °C): ~100%

CC[C@H](C)[C@H](NC(=O)[C@H](C)NC(=O)[C@@H](N)CCSC)C(=O)N[C@H](C(=O)NCC(=O)N[C@H](C(=O)N[C@H](C(=O)N[C@H](C(=O)N[C@@H](CCCCN)C(=O)N[C@H](C(=O)N[C@H](C(=O)N[C@@H](CCCCN)C(=O)N[C@@H](C)C(=O)N[C@H](C(=O)N[C@H](C(=O)N[C@@H](CC(=O)O)C(=O)N[C@H](C(=O)N[C@@H](Cc1ccccc1)C(=O)N[C@@H](C)C(=O)N[C@@H](CCCCN)C(=O)O)[C@@H](C)CC)[C@@H](C)CC)[C@@H](C)CC)[C@@H](C)CC)[C@@H](C)CC)[C@@H](C)CC)[C@@H](C)CC)[C@@H](C)O)C(C)C [PSMα4]
ATR-FTIR amide-I peak/maximum: 1620 cm⁻¹
Initial nitrocefin-degradation reaction rate, V0 ([1]; PSMα 4.01424 uM): 0.5451
Initial nitrocefin-degradation reaction rate, V0 ([1]; PSMα 6.02136 uM): 0.5496
Initial nitrocefin-degradation reaction rate, V0 ([1]; PSMα 9.03205 uM): -0.2169
Initial nitrocefin-degradation reaction rate, V0 ([1]; PSMα 13.5481 uM): 1.372
Initial nitrocefin-degradation reaction rate, V0 ([1]; PSMα 20.3221 uM): 0.8016
Initial nitrocefin-degradation reaction rate, V0 ([1]; PSMα 30.4832 uM): 1.8
Initial nitrocefin-degradation reaction rate, V0 ([1]; PSMα 45.7247 uM): 3.313
Initial nitrocefin-degradation reaction rate, V0 ([1]; PSMα 68.5871 uM): -1.824
Initial nitrocefin-degradation reaction rate, V0 ([1]; PSMα 102.881 uM): 15.0899
Initial nitrocefin-degradation reaction rate, V0 ([1]; PSMα 154.321 uM): 17.903
Initial nitrocefin-degradation reaction rate, V0 ([1]; PSMα 231.481 uM): 15.5904
Initial nitrocefin-degradation reaction rate, V0 ([1]; PSMα 347.222 uM): 26.4203
nitrocefin degradation yield (turnover) ([1]; Hepes 50 mM pH 7.4, 20 °C): ~ 15%

MQFVAKLFKFFKNLLGKFLGNN-NH2 [α3-cationic]
ATR-FTIR amide-I peak/maximum: 1660 cm⁻¹
initial rate of nitrocefin degradation reaction (V0) ([1]; peptide 170 µM, initial nitrocefin 107 µM, Hepes 50 mM pH 7.4, 20 °C, first 15 min (Fig. 3f)): around 60 µM/h

CC1(C)S[C@@H]2[C@H](NC(=O)Cc3ccccc3)C(=O)N2[C@H]1C(=O)O [Penicillin G]
Degraded Penicillin G (PSMa3) (percentage of LC peaks, hydrolyzed product) (PSMα3 fibrils; PSMα3 fibrils 308 µM, 0h): 14.1576%
Penicillin G (PSMa3) (percentage of LC peaks, parent compound) (PSMα3 fibrils; PSMα3 fibrils 308 µM, 0h): 85.8424%
Degraded Penicillin G (PSMa3) (percentage of LC peaks, hydrolyzed product) (PSMα3 fibrils; PSMα3 fibrils 308 µM, 2h): 11.4487%
Penicillin G (PSMa3) (percentage of LC peaks, parent compound) (PSMα3 fibrils; PSMα3 fibrils 308 µM, 2h): 88.5513%
Degraded Penicillin G (PSMa3) (percentage of LC peaks, hydrolyzed product) (PSMα3 fibrils; PSMα3 fibrils 308 µM, 4h): 13.5281%
Penicillin G (PSMa3) (percentage of LC peaks, parent compound) (PSMα3 fibrils; PSMα3 fibrils 308 µM, 4h): 86.4719%
Degraded Penicillin G (PSMa3) (percentage of LC peaks, hydrolyzed product) (PSMα3 fibrils; PSMα3 fibrils 308 µM, 8h): 13.7177%
Penicillin G (PSMa3) (percentage of LC peaks, parent compound) (PSMα3 fibrils; PSMα3 fibrils 308 µM, 8h): 86.2823%
Degraded Penicillin G (PSMa3) (percentage of LC peaks, hydrolyzed product) (PSMα3 fibrils; PSMα3 fibrils 308 µM, 12h): 18.21%
Penicillin G (PSMa3) (percentage of LC peaks, parent compound) (PSMα3 fibrils; PSMα3 fibrils 308 µM, 12h): 81.79%
Degraded Penicillin G (PSMa3) (percentage of LC peaks, hydrolyzed product) (PSMα3 fibrils; PSMα3 fibrils 308 µM, 24h): 37.9475%
Penicillin G (PSMa3) (percentage of LC peaks, parent compound) (PSMα3 fibrils; PSMα3 fibrils 308 µM, 24h): 62.0525%
Degraded Penicillin G (PSMa3) (percentage of LC peaks, hydrolyzed product) (PSMα3 fibrils; PSMα3 fibrils 308 µM, 48h): 86.3947%
Penicillin G (PSMa3) (percentage of LC peaks, parent compound) (PSMα3 fibrils; PSMα3 fibrils 308 µM, 48h): 13.6053%
Degraded Penicillin G (PSMa3) (percentage of LC peaks, hydrolyzed product) (PSMα3 fibrils; PSMα3 fibrils 308 µM, 60h): 96.085%
Penicillin G (PSMa3) (percentage of LC peaks, parent compound) (PSMα3 fibrils; PSMα3 fibrils 308 µM, 60h): 3.915%
Degraded Penicillin G (PSMa3) (percentage of LC peaks, hydrolyzed product) (PSMα3 fibrils; PSMα3 fibrils 308 µM, 72h): 99.5055%
Penicillin G (PSMa3) (percentage of LC peaks, parent compound) (PSMα3 fibrils; PSMα3 fibrils 308 µM, 72h): 0.4945%
hydrolysis by PSMα3 fibrils versus spontaneous degradation (PSMα3 fibrils; antibiotic 40 µM, PSMα3 fibrils 308 µM, Hepes 50 mM pH 7.4, LC-MS (Fig. 6)): significantly higher extent compared to the spontaneous degradation
Degraded Penicillin G (percentage of LC peaks, hydrolyzed product) (PSMα3 fibrils; 0h): 11.7847%
Penicillin G (percentage of LC peaks, parent compound) (PSMα3 fibrils; 0h): 88.2153%
Degraded Penicillin G (percentage of LC peaks, hydrolyzed product) (PSMα3 fibrils; 2h): 11.7612%
Penicillin G (percentage of LC peaks, parent compound) (PSMα3 fibrils; 2h): 88.2388%
Degraded Penicillin G (percentage of LC peaks, hydrolyzed product) (PSMα3 fibrils; 4h): 11.6984%
Penicillin G (percentage of LC peaks, parent compound) (PSMα3 fibrils; 4h): 88.3016%
Degraded Penicillin G (percentage of LC peaks, hydrolyzed product) (PSMα3 fibrils; 8h): 11.6907%
Penicillin G (percentage of LC peaks, parent compound) (PSMα3 fibrils; 8h): 88.3093%
Degraded Penicillin G (percentage of LC peaks, hydrolyzed product) (PSMα3 fibrils; 12h): 15.4738%
Penicillin G (percentage of LC peaks, parent compound) (PSMα3 fibrils; 12h): 84.5262%
Degraded Penicillin G (percentage of LC peaks, hydrolyzed product) (PSMα3 fibrils; 24h): 23.4015%
Penicillin G (percentage of LC peaks, parent compound) (PSMα3 fibrils; 24h): 76.5985%
Degraded Penicillin G (percentage of LC peaks, hydrolyzed product) (PSMα3 fibrils; 48h): 37.4339%
Penicillin G (percentage of LC peaks, parent compound) (PSMα3 fibrils; 48h): 62.5661%
Degraded Penicillin G (percentage of LC peaks, hydrolyzed product) (PSMα3 fibrils; 60h): 42.5642%
Penicillin G (percentage of LC peaks, parent compound) (PSMα3 fibrils; 60h): 57.4358%
Degraded Penicillin G (percentage of LC peaks, hydrolyzed product) (PSMα3 fibrils; 72h): 42.8604%
Penicillin G (percentage of LC peaks, parent compound) (PSMα3 fibrils; 72h): 57.1396%
